Values of other authors in patent US20200306231A1, “ORAL HYPOGLYCEMIC AGENTS AS FOOD ADDITIVES AND SUPPLEMENTS” (priority 2017, published 2020).

Legend:
[1] = in vivo
[2] = type 2 diabetes population; compared with other anti-diabetes drugs
[3] = DPPOS
[4] = ovarian cancer after chemotherapy, type 2 diabetes
[5] = type 2 diabetes
[6] = lung cancer after chemotherapy; type 2 diabetics taking metformin
[7] = neoadjuvant chemotherapy; type 2 diabetes patients taking metformin
[8] = another study
[9] = type 2 diabetes patients followed for 10 years; taking metformin compared with not taking metformin

| SMILES | side effect known to be caused [1] | risk of cardiovascular disease [2] | safety and tolerability [3] | weight loss [3] | lifespan and health span (mouse model) | 5-year overall survival rate ([4]; metformin users) | progression free survival at 5 years ([4]; taking metformin) | lifespan (nematodes) | risk of developing colorectal cancer, greater for those not taking metformin versus those taking metformin [5] | survival greater for those taking metformin versus not taking [5] | overall survival rate [6] | progression free survival [6] | chance of having a complete response (no residual cancer found during surgery) [7] | improved survival with metformin use [8] | risk reduction for developing prostate cancer (type 2 diabetics taking metformin compared with not taking) | overall survival rate greater, taking metformin versus not taking (type 2 diabetics who have prostate cancer) | lower risk of developing any type of cancer [9] |
| --- | --- | --- | --- | --- | --- | --- | --- | --- | --- | --- | --- | --- | --- | --- | --- | --- | --- |
| COc1ccc2cc3[n+](cc2c1OC)CCc1cc2c(cc1-3)OCO2 [berberine] | constipation |  |  |  |  |  |  |  |  |  |  |  |  |  |  |  |  |
| CN(C)C(=N)N=C(N)N [metformin] | diarrhea | decreased risk of cardiovascular disease | safe and well tolerated | moderate but durable weight loss | extends both lifespan and health span | 63% | 51% | extends the lifespan | 200% | 34% | 20 months | 8.4 months | 24% | 24% | no risk reduction | 45% | 54% |
